From the NIST ThermoML archive (doi:10.1016/j.fluid.2017.03.021)

Columns and labels:
[1] = 101.33 kPa, Liquid; for speed of sound: Sing-around technique in a fixed-path interferometer; for mass density: Vibrating tube method
[2] = molar heat capacity at constant pressure; conditions: 101.33 kPa, Liquid, DSC

CCCC[n+]1ccn(C2CCCC2)c1.O=S(=O)([N-]S(=O)(=O)C(F)(F)F)C(F)(F)F
Conditions	mass density, [1] [kg/m3]	molar heat capacity at constant pressure, [2] [J/K/mol]	speed of sound, [1] [m/s]
287.15 K	1384.9	–	1298.1
289.15 K	1383.1	–	1293.1
291.15 K	1381.2	–	1288.1
293.15 K	1379.4	648.54	1283.2
294.15 K	–	649.39	–
295.15 K	1377.5	650.01	1278.3
296.15 K	–	650.62	–
297.15 K	1375.7	651.28	1273.4
298.15 K	–	651.99	–
299.15 K	1373.8	652.8	1268.6
300.15 K	–	653.46	–
301.15 K	1372	654.08	1263.8
302.15 K	–	654.84	–
303.15 K	1370.2	655.4	1259
304.15 K	–	656.21	–
305.15 K	1368.4	657.01	1254.2
306.15 K	–	657.63	–
307.15 K	1366.5	658.43	1249.4
308.15 K	–	659.14	–
309.15 K	1364.7	659.9	1244.7
310.15 K	–	660.66	–
311.15 K	1362.9	661.42	1240
312.15 K	–	662.22	–
313.15 K	1361.1	663.07	1235.3
314.15 K	–	663.88	–
315.15 K	1359.3	664.73	1230.6
316.15 K	–	665.35	–
317.15 K	1357.5	666.15	1226
318.15 K	–	666.77	–
319.15 K	1355.7	667.43	1221.4
320.15 K	–	668.19	–
321.15 K	1353.9	668.94	1216.7
322.15 K	–	669.75	–
323.15 K	1352.1	670.51	1212.1
324.15 K	–	671.26	–
325.15 K	1350.3	672.02	1207.6
326.15 K	–	672.78	–
327.15 K	1348.5	673.49	1203
328.15 K	–	674.44	–
329.15 K	1346.7	675.15	1198.5
330.15 K	–	675.95	–
331.15 K	1344.9	676.8	1193.9
332.15 K	–	677.56	–
333.15 K	1343.1	678.41	1189.4
334.15 K	–	679.22	–
335.15 K	1341.3	680.21	1185
336.15 K	–	680.88	–
337.15 K	1339.6	681.63	1180.5
338.15 K	–	682.34	–
339.15 K	1337.8	683.01	1176.1
340.15 K	–	683.91	–
341.15 K	1336	684.76	1171.7
342.15 K	–	685.47	–
343.15 K	1334.3	686.27	1167.3
344.15 K	–	686.94	–
345.15 K	–	687.65	–
346.15 K	–	688.45	–
347.15 K	–	689.07	–
348.15 K	–	690.11	–
